# “And” between values parts separate entries of the source, which are not always exact repeats. Equal entries are not always repeated.
# B1: claudin-1: human claudin-1 protein from E. coli cell-free synthesis, coated on the permeable support (protein, UniProt O95832 1-211, looked up)
# Claudin-1: MANAGLQLLGFILAFLGWIGAIVSTALPQWRIYSYAGDNIVTAQAMYEGLWMSCVSQSTGQIQCKVFDSLLNLSSTLQATRALMVVGILLGVIAIFVATVGMKCMKCLEDDEVQKMRMAVIGGAIFLLAGLAILVATAWYGNRIVQEFYDPMTPVNARYEFGQALFTGWAAASLCLLGGALLCCSCPRKTTSYPTPRPYPKPAPSSGKDYV
# Tests used:
# CYP2C19 = molecular target: T1, CYP2C19 (Homo sapiens, UniProt P33261); test: Metabolic assay, cocktail substrate method ((S)-mephenytoin to 4’-hydroxymephenytoin); assay type: in vitro ADME; conditions: for Enzyme activity, Mean: mean of Well-1 to Well-4
# T1 construct: host or cells: PXB-cells (icHep: JFC, HUM181001B; sandwich culture: JFC)
# Description: The metabolic activity of icHep and sandwich-cultured PXB-cells was measured using the cocktail substrate method of drug-metabolizing enzymes. The components of the cocktail are summarized in Supplementary Table 1. Assays were initiated by treating cells with TB containing cocktail substrates. Time point of each substrate was set when a linear increase in its metabolite production was observed. Concentrations of metabolites produced in the medium were measured by liquid chromatography-mass spectrometry (LC-MS/MS).
# [1] = test system: primary human hepatocytes / PXB-cells; test: Counting hepatocyte bile canaliculi opening to the culture equipment (hemi-lumen formation rate); assay type: cell-based
# Description: Transwell^TM permeable support used was coated with 50 μg/ml rat tail collagen I (Corning) in 0.02 N acetic acid at room temperature for 1 h. Transwell^TM was washed twice with PBS, then the in vitro-synthesised claudin-1, -2, -3, and -9 proteins were applied to Transwell^TM at a density of 750 ng/cm^2 each and incubated at room temperature for 1 h. Transwell^TM was washed twice with PBS before seeding cells. Cryopreserved human hepatocytes (Donor ID. HU1663) were purchased from Thermo Fisher Scientific and thawed using CHRM. The hepatocytes were then diluted with WEM containing CM3000. PXB-cells (Donor ID. JFC, and HUM181001B) were obtained from PhoenixBio (Hiroshima, Japan) as described previously. […] PXB-cells were resuspended in 2% DMSO-supplemented hepatocyte growth medium (d-HCGM)[27]. Cryopreserved human hepatocytes and PXB-cells were seeded at a density of 2.1 × 10^5 cells/cm^2 in the protein-coated culture equipment. After 4 h of incubation, the culture medium was replaced with fresh culture medium to remove the unattached cells. After 24 h of incubation, the cells were cultured in d-HCGM supplemented with 250 μg/ml Matrigel. The spent medium was replaced with fresh medium every 3 days. Donor information for the human hepatocytes used is listed in Supplementary Table 2.
# To count the open- and closed-type bile canaliculi, MRP2 immunostaining was performed using the Z-stack function of a confocal microscope (LSM710; Carl Zeiss, Oberkochen, Germany). Immunostaining was performed as previously described. The ratio of open-type bile canaliculi to the total number of bile canaliculi was calculated according to Eq. (1), and the value obtained was evaluated as the induction rate of open-type bile canaliculi. Here, Aopen bile canaliculi and Abile canaliculi indicate the number of open-type bile canaliculi and total number of bile canaliculi, respectively.1 Formationrate%=Aopenbilecanaliculi/Abilecanaliculi×100
# T1 sequence (P33261 whole entry): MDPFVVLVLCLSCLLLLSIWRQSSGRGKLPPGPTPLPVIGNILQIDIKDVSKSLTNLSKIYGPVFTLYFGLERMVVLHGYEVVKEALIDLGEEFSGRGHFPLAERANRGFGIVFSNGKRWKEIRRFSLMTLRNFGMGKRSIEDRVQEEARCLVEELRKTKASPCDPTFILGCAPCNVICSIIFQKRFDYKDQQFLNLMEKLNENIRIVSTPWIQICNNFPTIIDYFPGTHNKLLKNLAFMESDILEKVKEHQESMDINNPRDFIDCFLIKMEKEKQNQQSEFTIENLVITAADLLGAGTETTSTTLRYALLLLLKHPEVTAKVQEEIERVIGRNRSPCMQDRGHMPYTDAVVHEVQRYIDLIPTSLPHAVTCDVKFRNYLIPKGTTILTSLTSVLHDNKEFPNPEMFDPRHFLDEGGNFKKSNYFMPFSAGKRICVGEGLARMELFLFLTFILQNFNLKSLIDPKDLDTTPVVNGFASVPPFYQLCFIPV
molecule,measurement,setting,value
CC[C@@]1(c2ccc(O)cc2)NC(=O)N(C)C1=O [4'-hydroxymephenytoin],Enzyme activity,"CYP2C19; PXB-cells (JFC), incubation time 30 min, single wells",56.4054 pmol/106 cells and 48.3281 pmol/106 cells and 62.3033 pmol/106 cells and 62.1838 pmol/106 cells
same,Enzyme activity,"CYP2C19; PXB-cells (JFC), incubation time 45 min, single wells",95.7591 pmol/106 cells and 93.7057 pmol/106 cells and 89.6102 pmol/106 cells and 94.8294 pmol/106 cells
same,Enzyme activity,"CYP2C19; PXB-cells (JFC), incubation time 60 min, single wells",136.786 pmol/106 cells and 120.497 pmol/106 cells and 123.843 pmol/106 cells and 115.035 pmol/106 cells
same,Enzyme activity,"CYP2C19; PXB-cells (JFC), incubation time 90 min, single wells",86.2332 pmol/106 cells and 112.727 pmol/106 cells and 89.0355 pmol/106 cells and 99.3009 pmol/106 cells
same,"Enzyme activity, Mean",CYP2C19; PXB-cells (JFC),2.25 pmol/min/106 cells
same,Enzyme activity,"CYP2C19; icHep (HUM18100B), incubation time 15 min, single wells",50.5312 pmol/106 cells and 52.3394 pmol/106 cells and 56.2209 pmol/106 cells and 49.5383 pmol/106 cells
same,Enzyme activity,"CYP2C19; icHep (HUM18100B), incubation time 30 min, single wells",80.4095 pmol/106 cells and 100.579 pmol/106 cells and 91.6841 pmol/106 cells and 101.877 pmol/106 cells
same,Enzyme activity,"CYP2C19; icHep (HUM18100B), incubation time 45 min, single wells",142.367 pmol/106 cells and 129.072 pmol/106 cells and 120.304 pmol/106 cells and 122.788 pmol/106 cells
same,Enzyme activity,"CYP2C19; icHep (HUM18100B), incubation time 60 min, single wells",162.513 pmol/106 cells and 158.829 pmol/106 cells and 171.479 pmol/106 cells and 144.395 pmol/106 cells
same,Enzyme activity,"CYP2C19; icHep (HUM18100B), incubation time 90 min, single wells",188.684 pmol/106 cells and 187.153 pmol/106 cells and 171.43 pmol/106 cells and 198.851 pmol/106 cells
same,"Enzyme activity, Mean",CYP2C19; icHep (HUM18100B),2.55 pmol/min/106 cells
same,Enzyme activity,"CYP2C19; icHep (HUM18100B), rate per single well",3.06 pmol/min/106 cells and 2.56 pmol/min/106 cells and 2.14 pmol/min/106 cells and 2.44 pmol/min/106 cells
same,Enzyme activity,"CYP2C19; icHep (JFC), incubation time 15 min, single wells",42.1708 pmol/106 cells and 39.5525 pmol/106 cells and 21.6896 pmol/106 cells and 37.3866 pmol/106 cells
same,Enzyme activity,"CYP2C19; icHep (JFC), incubation time 30 min, single wells",65.4216 pmol/106 cells and 67.8652 pmol/106 cells and 74.7797 pmol/106 cells and 75.4174 pmol/106 cells
same,Enzyme activity,"CYP2C19; icHep (JFC), incubation time 45 min, single wells",91.82 pmol/106 cells and 75.2152 pmol/106 cells and 103.29 pmol/106 cells and 100.957 pmol/106 cells
same,Enzyme activity,"CYP2C19; icHep (JFC), incubation time 60 min, single wells",121.361 pmol/106 cells and 85.9573 pmol/106 cells and 140.345 pmol/106 cells and 108.521 pmol/106 cells
same,Enzyme activity,"CYP2C19; icHep (JFC), incubation time 90 min, single wells",124.213 pmol/106 cells and 122.549 pmol/106 cells and 116.257 pmol/106 cells and 126.058 pmol/106 cells
same,"Enzyme activity, Mean",CYP2C19; icHep (JFC),2.38 pmol/min/106 cells
B1,hemi-lumen formation rate,"[1]; PXB-cells (donor), supports individually coated with each claudin",44.5 ± 4.8%
same,Open bile canalicular formation rate (%) Mean,"[1]; icHep (JFC), claudin coating, mean of 3",44.5%
same,Open bile canalicular formation rate (%),"[1]; icHep (JFC), claudin coating, single replicate",50.0% and 41.5% and 42.0%
